Measured values reported in patent publication US20240116946A1 (Gilead Sciences, Inc., priority 2022, published 2024).
Where two headings read alike, the source gives them in different places.

What was measured:
[1] = biological target: recombinant SARS-CoV-2 Main protease (Mpro) (Severe acute respiratory syndrome coronavirus 2 (2019-nCoV) (SARS-CoV-2), UniProt P0DTD1); test: Cov Mpro Biochemical IC50 Assay
SARS-CoV-2-NLuc = test: microbe, parasite or virus in culture; format: cell-based, SARS Coronavirus 2
[2] = recombinant SARS-CoV-2 Mpro 7.5 nM, fluorogenic peptide substrate 40 μM, read-out: MPro IC50
[3] = Severe acute respiratory syndrome coronavirus, 48 h, read-out: MPro EC50
[4] = Severe acute respiratory syndrome coronavirus, 48 h; read-out: MPro EC50
[5] = recombinant SARS-CoV-2 Mpro, fluorogenic peptide substrate, read-out: MPro IC50

Structure (SMILES) | IC50 [1, 2] [nM] | EC50 (SARS-CoV-2-NLuc; [3]) [nM] | also measured
Cn1ncc2cncc(-n3c(=O)c4sc(-c5ccc(C(F)(F)F)cc5C#N)cc4n(CCC#N)c3=O)c21 [Example 775] | 600 | > 1000 | 
Cc1cc(-c2cccc(Cl)c2-c2cc3[nH]c(=O)n(-c4cncc(C5CC5)c4)c(=O)c3s2)cnn1 [Example 615, 6-(2-chloro-6-(6-methylpyridazin-4-yl)phenyl)-3-(5-cyclopropylpyridin-3-yl)thieno[3,2-d]pyrimidine-2,4(1H,3H)-dione] | 9.85 |  | EC50 (SARS-CoV-2-NLuc; [4]): 140 nM
COc1ccc(C#N)c(-c2cc3[nH]c(=O)n(-c4cncc5ccc(N6CCC(F)(F)C6)cc45)c(=O)c3s2)c1 [Example 418] | 21.4 | 126 | 
COc1cc(-c2cc3[nH]c(=O)n(-c4cncc5cnn(C)c45)c(=O)c3s2)c(C)cc1F [Example 657] | 14.4 | 27.4 | 
COc1cc(-c2cc3[nH]c(=O)n(-c4cncc(C)c4Cl)c(=O)c3s2)c(Cl)cc1F [Example 1080] | 20.4 | 36 | 
COc1cc(-c2cc3c(s2)c(=O)n(-c2cncc4ccccc24)c(=O)n3CCC#N)c(Cl)cc1F (single isomer, unassigned) [Example 637, 3-[6-(2-chloro-4-fluoro-5-methoxy-phenyl)-3-(4-isoquinolyl)-2,4-dioxo-thieno[3,2-d]pyrimidin-1-yl]propanenitrile] | 3.48 |  | EC50 (SARS-CoV-2-NLuc; read-out: MPro EC50): 1.85 nM
O=c1[nH]c2cc(-c3ccccc3Cl)sc2c(=O)n1-c1cncc2ccoc12 [Example 490] | 20.8 | 55.8 | 
Cc1cncc(-c2cccc(Cl)c2-c2ccc3c(=O)n(-c4cncc5ccccc45)c(=O)[nH]c3c2)c1 [Example 198] |  | 8.47 | IC50 [1, 5]: 8.77 nM
COc1cc(-c2cc3[nH]c(=O)n(-c4cncc5ccccc45)c(=O)c3cc2F)c(Cl)cc1F (single isomer, unassigned) [Example 1007, 7-(2-chloro-4-fluoro-5-methoxy-phenyl)-6-fluoro-3-(4-isoquinolyl)-1H-quinazoline-2,4-dione] |  |  | IC50 ([1]; MPro IC50, recombinant SARS-CoV-2 Mpro 7.5 nM, fluorogenic peptide substrate 40 μM): 331 nM; EC50 (SARS-CoV-2-NLuc; read-out: MPro EC50): 301 nM
Cc1ccncc1-n1c(=O)[nH]c2cc(-c3ccccc3Cl)sc2c1=O [Example 216] |  | 112 | IC50 [1, 5]: 62.3 nM
O=c1[nH]c2cc(-c3c(Cl)cc(Cl)c4c3CCO4)sc2c(=O)n1-c1cncc2ccccc12 [Example 647] | 10.9 | 25.9 | 
COc1cc(-c2cc3c(s2)c(=O)n(-c2cncc4cnn(C)c24)c(=O)n3CCC#N)c(C#N)cc1F (single isomer, unassigned) [Example 1003, 2-[1-(2-cyanoethyl)-3-(1-methylpyrazolo[4,3-c]pyridin-7-yl)-2,4-dioxo-thieno[3,2-d]pyrimidin-6-yl]-5-fluoro-4-methoxy-benzonitrile] | 2.83 |  | EC50 (SARS-CoV-2-NLuc; read-out: MPro EC50): 5.66 nM
COc1cc(-c2cc3[nH]c(=O)n(-c4cncc5nn(CC(F)(F)F)c(C)c45)c(=O)c3s2)c(Cl)cc1F [Example 740] | 47.9 | 103 | 
COc1cc(-c2cc3c(s2)c(=O)n(-c2cncc4nccn24)c(=O)n3CCC#N)c(Cl)cc1F [Example 1000] | 10.6 | 20.1 | 
Cc1ccc(C#N)cc1-c1cc2[nH]c(=O)n(-c3cncc4ccccc34)c(=O)c2s1 [Example 546] | 15.4 | 164 | 
O=c1c2sc(-c3ncco3)cc2n(CC2CCCC2)c(=O)n1-c1cncc2ccccc12 [Example 170, 1-(cyclopentylmethyl)-3-(isoquinolin-4-yl)-6-(oxazol-2-yl)thieno[3,2-d]pyrimidine-2,4(1H,3H)-dione] |  | 421 | IC50 [1, 5]: 192 nM
N#CCCn1c(=O)n(-c2cncc(C3CC4(COC4)C3)c2)c(=O)c2sc(-c3ccccc3Cl)cc21 [Example 1064, 3-(3-(5-(2-oxaspiro[3.3]heptan-6-yl)pyridin-3-yl)-6-(2-chlorophenyl)-2,4-dioxo-3,4-dihydrothieno[3,2-d]pyrimidin-1(2H)-yl)propanenitrile] | 24 |  | EC50 (SARS-CoV-2-NLuc; [4]): 713 nM
COc1cc(-c2cc3c(s2)c(=O)n(-c2cncc4ccc(C#CC(C)(C)O)cc24)c(=O)n3CCC#N)c(Cl)cc1F [Example 947] | 7.28 | 14.2 | 
COc1cc(-c2cc3c(s2)c(=O)n(-c2cncc4c(F)cccc24)c(=O)n3CCC#N)c(Cl)cc1F [Example 950] | 4.5 | 11.8 | 
COc1cc(-c2cc3[nH]c(=O)n(-c4cncc5cccnc45)c(=O)c3s2)c(Cl)cc1F (single isomer, unassigned) [Example 1008, 6-(2-chloro-4-fluoro-5-methoxy-phenyl)-3-(1,6-naphthyridin-8-yl)-1H-thieno[3,2-d]pyrimidine-2,4-dione] | 128 |  | EC50 (SARS-CoV-2-NLuc; read-out: MPro EC50): 138 nM
COc1cc(-c2cc3[nH]c(=O)n(-c4cncc5ccccc45)c(=O)c3s2)c(C)cc1Cl [Example 716] | 15.9 | 18.7 | 
COc1ccc(Cl)c(-c2cc3[nH]c(=O)n(-c4cncc5cc(Cl)ccc45)c(=O)c3s2)c1 [Example 591] | 12.2 | 142 | 
Cn1ncc2cncc(-n3c(=O)c4sc(-c5ccc(Cl)cc5C#N)cc4n(CCC#N)c3=O)c21 [Example 824] | 22.5 |  | EC50 (SARS-CoV-2-NLuc; [4]): 79.9 nM

Structure (SMILES) | IC50 [1, 2] [nM] | EC50 (SARS-CoV-2-NLuc; [3]) [nM] | also measured
Cc1cc(-n2c(=O)c3sc(-c4ccccc4Cl)cc3n(CCC#N)c2=O)cnc1F [Example 825] | 33.9 | 77 | 
COc1cc(-c2cc3c(s2)c(=O)n(-c2cncc4cnn(C)c24)c(=O)n3C)c(Cl)cc1F [Example 898, 6-(2-chloro-4-fluoro-5-methoxyphenyl)-1-methyl-3-(1-methyl-1H-pyrazolo[4,3-c]pyridin-7-yl)thieno[3,2-d]pyrimidine-2,4(1H,3H)-dione] | 13 | 11.9 | 
N#CCCn1c(=O)n(-c2cncc3cccnc23)c(=O)c2sc(-c3ccccc3Cl)cc21 [Example 905] | 5.93 | 4.17 | 
COc1ccc(Cl)c(-c2cc3[nH]c(=O)n(-c4cncc5c4cnn5C)c(=O)c3s2)c1 [Example 497] | 6.24 |  | EC50 (SARS-CoV-2-NLuc; [4]): 19.1 nM
Cc1c(-c2ccccc2Cl)sc2[nH]c(=O)n(-c3cncc4ccccc34)c(=O)c12 [Example 75] |  | 9390 | IC50 [1, 5]: 854 nM
N#CCCn1c(=O)n(-c2cncc3cccc(F)c23)c(=O)c2sc(-c3ccccc3Cl)cc21 [Example 1084] | 7.62 | 11.7 | 
C#Cc1cc(F)c(OC)cc1-c1cc2c(s1)c(=O)n(-c1cncc3nnn(C4CC4)c13)c(=O)n2CCC#N [Example 882] | 26.3 | 69.7 | 
N#Cc1cccc(-c2cccc(Cl)c2-c2ccc3c(=O)n(-c4cncc5ccccc45)c(=O)[nH]c3c2)n1 [Example 276] |  | 219 | IC50 [1, 5]: 230 nM
COc1cc(-c2cc3[nH]c(=O)n(-c4cncc5cnn(C)c45)c(=O)c3cc2F)c(C#N)cc1F [Example 766] | 18.9 | 102 | 
NC(=O)c1cc(-c2cccc(Cl)c2-c2ccc3c(=O)n(-c4cncc5ccccc45)c(=O)[nH]c3c2)ccc1F [Example 260] |  | 10.3 | IC50 [1, 5]: 15.3 nM
Cc1ccc(-c2cc3[nH]c(=O)n(-c4cncc5ccccc45)c(=O)c3s2)c(Cl)n1 [Example 289] |  | 119 | IC50 [1, 5]: 41.7 nM
N#Cc1ccccc1-c1cc(F)c2c(=O)n(-c3cncc4ccccc34)c(=O)[nH]c2c1 [Example 223] |  |  | IC50 [1, 5]: 101 nM; EC50 (SARS-CoV-2-NLuc; [4]): 414 nM
O=c1c2sc(-c3ccccc3Cl)cc2[nH]c(=S)n1-c1cncc2ccccc12 [Example 176] |  |  | IC50 ([1]; MPro IC50, recombinant SARS-CoV-2 Mpro, fluorogenic peptide substrate): 330 nM; EC50 (SARS-CoV-2-NLuc; [4]): 292 nM
COc1cnc(Cl)c(-c2cc3c(s2)c(=O)n(-c2cncc4nnn(C)c24)c(=O)n3CCC#N)c1 [Example 884] | 31.4 | 126 | 
COc1ccc(Cl)c(-c2cc3[nH]c(=O)n(-c4cncc5cc(C(C)(C)O)sc45)c(=O)c3s2)c1 [Example 512, 6-(2-chloro-5-methoxy-phenyl)-3-[2-(1-hydroxy-1-methyl-ethyl)thieno[3,2-c]pyridin-7-yl]-1H-thieno[3,2-d]pyrimidine-2,4-dione] | 5.71 | 26.9 | 
COc1cccc(C)c1-c1ccc2c(=O)n(-c3cncc4ccccc34)c(=O)[nH]c2c1 [Example 89] |  | 881 | IC50 [1, 5]: 860 nM
COc1cc(-c2cc3[nH]c(=O)n(-c4cncc5ccccc45)c(=O)c3cc2F)c(C#N)cc1F (single isomer, unassigned) [Example 510, 5-fluoro-2-[6-fluoro-3-(4-isoquinolyl)-2,4-dioxo-1H-quinazolin-7-yl]-4-methoxy-benzonitrile] | 7.05 |  | EC50 (SARS-CoV-2-NLuc; read-out: MPro EC50): 16.2 nM
CCn1cc(-c2cccc(Cl)c2-c2ccc3c(=O)n(-c4cncc5ccccc45)c(=O)[nH]c3c2)c(C(F)(F)F)n1 [Example 281] |  | 39.5 | IC50 [1, 5]: 71.8 nM
N#CCCn1c(=O)n(-c2cncc3ccccc23)c(=O)c2sc(-c3ccccc3C#N)cc21 (single isomer, unassigned) [Example 963, 2-(1-(2-cyanoethyl)-3-(isoquinolin-4-yl)-2,4-dioxo-1,2,3,4-tetrahydrothieno[3,2-d]pyrimidin-6-yl)benzonitrile] | 7.92 |  | EC50 (SARS-CoV-2-NLuc; read-out: MPro EC50): 14.6 nM
COc1cc(-c2cc3[nH]c(=O)n(-c4cncc5ccccc45)c(=O)c3s2)c(C#N)cn1 [Example 542] | 249 | 1200 | 
COc1ccc(Cl)c(-c2cc3[nH]c(=O)n(-c4cncc5c4CCCO5)c(=O)c3s2)c1 [Example 599] | 4.98 | 48.9 | 
COc1cc(-c2cc3[nH]c(=O)n(-c4cncc(C)c4C)c(=O)c3s2)c(Cl)cc1F [Example 747] | 4.63 | 4.19 | 
Cc1c(Cl)cncc1-n1c(=O)c2sc(-c3ccccc3C#N)cc2n(CCC#N)c1=O [Example 846] | 12.5 |  | EC50 (SARS-CoV-2-NLuc; [4]): 37.3 nM
